This note sets out measurements from ChEMBL document CHEMBL1146373, “Free-radical-scavenging effect of carbazole derivatives on AAPH-induced hemolysis of human erythrocytes” (2007).

The structures appear in SMILES notation.

What all share (type): functional
Assay [1] relates to Erythrocyte. Nature of the assay: Inhibition of AAPH-induced hemolysis in human erythrocytes assessed as hemolysis inhibition time at 15.4 uM.
Assay [2] relates to Erythrocyte. Nature of the assay: Inhibition of AAPH-induced hemolysis in human erythrocytes assessed as hemolysis time at 6.17 uM.
Assay [3] concerns Erythrocyte. In words: Inhibition of AAPH-induced hemolysis in human erythrocytes assessed as hemolysis time at 20.6 uM.
Assay [4] relates to Erythrocyte. Nature of the assay: Inhibition of AAPH-induced hemolysis in human erythrocytes assessed as hemolysis time at 15.4 uM.
Assay [5] deals with Erythrocyte. In words: Inhibition of AAPH-induced hemolysis in human erythrocytes assessed as hemolysis time at 9.26 uM.
Assay [6] concerns Erythrocyte. Nature of the assay: Inhibition of AAPH-induced hemolysis in human erythrocytes assessed as hemolysis time at 12.3 uM.
Assay [7] relates to Erythrocyte. Nature of the assay: Inhibition of AAPH-induced hemolysis in human erythrocytes assessed as hemolysis inhibition time at 9.26 uM.
Assay [8] relates to Erythrocyte. In words: Inhibition of AAPH-induced hemolysis in human erythrocytes assessed as hemolysis inhibition time at 12.3 uM.
The subject of assay [9] is Erythrocyte. In words: Inhibition of AAPH-induced hemolysis in human erythrocytes assessed as hemolysis inhibition time at 20.6 uM.
In assay [10] the test system is Erythrocyte. Nature of the assay: Inhibition of AAPH-induced hemolysis in human erythrocytes assessed as hemolysis inhibition time at 6.17 uM.
Assay [11] concerns Erythrocyte. In words: Inhibition of AAPH-induced hemolysis in human erythrocytes assessed as hemolysis time at 12 uM.
The subject of assay [12] is Erythrocyte. In words: Inhibition of AAPH-induced hemolysis in human erythrocytes assessed as hemolysis inhibition time at 12 uM.
Assay [13] deals with Erythrocyte. In words: Inhibition of AAPH-induced hemolysis in human erythrocytes assessed as hemolysis time at 6 uM.
Assay [14] relates to Erythrocyte. In words: Inhibition of AAPH-induced hemolysis in human erythrocytes assessed as hemolysis time at 3 uM.
Assay [15] deals with Erythrocyte. In words: Inhibition of AAPH-induced hemolysis in human erythrocytes assessed as hemolysis time at 9 uM.
Assay [16] has as its system Erythrocyte. Nature of the assay: Inhibition of AAPH-induced hemolysis in human erythrocytes assessed as hemolysis inhibition time at 9 uM.
The test system of assay [17] is Erythrocyte. In words: Inhibition of AAPH-induced hemolysis in human erythrocytes assessed as hemolysis inhibition time at 15 uM.
For assay [18], the system named is Erythrocyte. Nature of the assay: Inhibition of AAPH-induced hemolysis in human erythrocytes assessed as hemolysis time at 15 uM.
For assay [19], the system named is Erythrocyte. Nature of the assay: Inhibition of AAPH-induced hemolysis in human erythrocytes assessed as hemolysis inhibition time at 3 uM.
Assay [20] has as its system Erythrocyte. Nature of the assay: Inhibition of AAPH-induced hemolysis in human erythrocytes assessed as hemolysis inhibition time at 6 uM.
Assay [21] deals with Erythrocyte. In words: Inhibition of AAPH-induced hemolysis in human erythrocytes assessed as hemolysis time at 12.4 uM.
Assay [22] deals with Erythrocyte. Nature of the assay: Inhibition of AAPH-induced hemolysis in human erythrocytes assessed as hemolysis inhibition time at 8.26 uM.
Assay [23] concerns Erythrocyte. In words: Inhibition of AAPH-induced hemolysis in human erythrocytes assessed as hemolysis inhibition time at 12.4 uM.
For assay [24], the system named is Erythrocyte. Nature of the assay: Inhibition of AAPH-induced hemolysis in human erythrocytes assessed as hemolysis time at 16.5 uM.
Assay [25] relates to Erythrocyte. Nature of the assay: Inhibition of AAPH-induced hemolysis in human erythrocytes assessed as hemolysis inhibition time at 16.5 uM.
In assay [26] the test system is Erythrocyte. In words: Inhibition of AAPH-induced hemolysis in human erythrocytes assessed as hemolysis time at 8.26 uM.
Assay [27] has as its system Erythrocyte. Nature of the assay: Inhibition of AAPH-induced hemolysis in human erythrocytes assessed as hemolysis time at 24.8 uM.
The test system of assay [28] is Erythrocyte. Nature of the assay: Inhibition of AAPH-induced hemolysis in human erythrocytes assessed as hemolysis inhibition time at 24.8 uM.
In assay [29] the test system is Erythrocyte. In words: Inhibition of AAPH-induced hemolysis in human erythrocytes assessed as hemolysis time at 20.7 uM.
For assay [30], the system named is Erythrocyte. Nature of the assay: Inhibition of AAPH-induced hemolysis in human erythrocytes assessed as hemolysis inhibition time at 20.7 uM.
Assay [31] has as its system Erythrocyte. Nature of the assay: Inhibition of AAPH-induced hemolysis in human erythrocytes assessed as hemolysis inhibition time at 50.8 uM.
Assay [32] concerns Erythrocyte. Nature of the assay: Inhibition of AAPH-induced hemolysis in human erythrocytes assessed as hemolysis time at 61 uM.
The test system of assay [33] is Erythrocyte. In words: Inhibition of AAPH-induced hemolysis in human erythrocytes assessed as hemolysis time at 50.8 uM.
The subject of assay [34] is Erythrocyte. In words: Inhibition of AAPH-induced hemolysis in human erythrocytes assessed as hemolysis inhibition time at 30.5 uM.
In assay [35] the test system is Erythrocyte. In words: Inhibition of AAPH-induced hemolysis in human erythrocytes assessed as hemolysis inhibition time at 20.3 uM.
Assay [36] concerns Erythrocyte. Nature of the assay: Inhibition of AAPH-induced hemolysis in human erythrocytes assessed as hemolysis time at 30.5 uM.
In assay [37] the test system is Erythrocyte. In words: Inhibition of AAPH-induced hemolysis in human erythrocytes assessed as hemolysis time at 37.3 uM.
The test system of assay [38] is Erythrocyte. Nature of the assay: Inhibition of AAPH-induced hemolysis in human erythrocytes assessed as hemolysis time at 20.3 uM.
For assay [39], the system named is Erythrocyte. In words: Inhibition of AAPH-induced hemolysis in human erythrocytes assessed as hemolysis inhibition time at 37.3 uM.
Assay [40] has as its system Erythrocyte. Nature of the assay: Inhibition of AAPH-induced hemolysis in human erythrocytes assessed as hemolysis inhibition time at 61 uM.
Assay [41] concerns Erythrocyte. In words: Inhibition of AAPH-induced hemolysis in human erythrocytes assessed as hemolysis time at 13.9 uM.
The test system of assay [42] is Erythrocyte. In words: Inhibition of AAPH-induced hemolysis in human erythrocytes assessed as hemolysis time at 10.8 uM.
Assay [43] relates to Erythrocyte. In words: Inhibition of AAPH-induced hemolysis in human erythrocytes assessed as hemolysis inhibition time at 10.8 uM.
Assay [44] concerns Erythrocyte. Nature of the assay: Inhibition of AAPH-induced hemolysis in human erythrocytes assessed as hemolysis time at 15.5 uM.
For assay [45], the system named is Erythrocyte. In words: Inhibition of AAPH-induced hemolysis in human erythrocytes assessed as hemolysis time at 9.27 uM.
The test system of assay [46] is Erythrocyte. In words: Inhibition of AAPH-induced hemolysis in human erythrocytes assessed as hemolysis inhibition time at 13.9 uM.
For assay [47], the system named is Erythrocyte. In words: Inhibition of AAPH-induced hemolysis in human erythrocytes assessed as hemolysis inhibition time at 9.27 uM.
The subject of assay [48] is Erythrocyte. In words: Inhibition of AAPH-induced hemolysis in human erythrocytes assessed as hemolysis inhibition time at 15.5 uM.

Regarding `c1ccc2c(c1)[nH]c1ccccc12` [CARBAZOLE], the Activity in the assay on Erythrocyte [1] worked out at 167 min; with Erythrocyte [2], 265 min; in the assay on Erythrocyte [3], 406 min; in the assay on Erythrocyte [4] it was 364 min; with Erythrocyte [5], 298 min; in the assay on Erythrocyte [6], 327 min. Moreover, the Activity came out at 101 min in the assay on Erythrocyte [7], 130 min with Erythrocyte [8], 209 min with Erythrocyte [9] and 68 min in the assay with Erythrocyte [10].
`c1ccc(Nc2ccccc2)cc1` [DIPHENYLAMINE]: the Activity in the assay on Erythrocyte [11] stood at 458 min; in the assay on Erythrocyte [12], 225 min; in the assay on Erythrocyte [13], 346 min; with Erythrocyte [14], 257 min; with Erythrocyte [15], 400 min; in the assay on Erythrocyte [16], 167 min. Further, the Activity in the assay with Erythrocyte [17] was 256 min; in the assay on Erythrocyte [18] it was 489 min; with Erythrocyte [19], 24 min; with Erythrocyte [20], 113 min.
Regarding `C1=Cc2ccccc2Nc2ccccc21` [IMINOSTILBENE], the Activity in the assay on Erythrocyte [21] is recorded as 297 min; in the assay with Erythrocyte [22], 52 min; in the assay on Erythrocyte [23] it was 85 min; with Erythrocyte [24], 333 min; with Erythrocyte [25] it was 121 min; in the assay on Erythrocyte [26], 264 min. In addition, the Activity in the assay on Erythrocyte [27] was 381 min; in the assay on Erythrocyte [28] it was 169 min; in the assay on Erythrocyte [29] it was 365 min; in the assay with Erythrocyte [30], 153 min.
In the case of `c1ccc2c(c1)Nc1ccccc1S2` [PHENOTHIAZINE], the Activity in the assay on Erythrocyte [31] is 197 min; in the assay with Erythrocyte [32], 451 min; in the assay with Erythrocyte [33] it was 408 min; in the assay with Erythrocyte [34], 119 min; with Erythrocyte [35], 64 min; in the assay on Erythrocyte [36], 330 min. Also, the Activity was determined as 368 min in the assay on Erythrocyte [37], 275 min in the assay with Erythrocyte [38], 157 min with Erythrocyte [39] and 240 min in the assay on Erythrocyte [40].
Consider `c1ccc2c(c1)Nc1ccccc1O2` [PHENOXAZINE], for which the Activity with Erythrocyte [41] stood at 461 min; in the assay with Erythrocyte [21], 425 min; with Erythrocyte [23] it was 238 min; with Erythrocyte [42], 379 min; in the assay on Erythrocyte [43], 192 min; with Erythrocyte [44], 509 min. Also, the Activity in the assay on Erythrocyte [45] is given as 345 min; in the assay with Erythrocyte [46] it was 274 min; with Erythrocyte [47] it was 158 min; with Erythrocyte [48], 322 min.
